Reference: paper PMC8308911, “Pharmacokinetic Study of Anti-osteoarthritic Compounds of a Standardized Fraction from Sphaeralcea Angustifolia” (Pharmaceuticals, 2021)
Read-outs that look alike come from different tables or passages of the source. Each block holds one compound with its values, some of them ahead of it.

Columns and labels:
[1] = mouse
Experimental: (§1) The investigation presented here expected manipulation conditions during all of the sample storage and process periods, which included the stability data from the freeze/defrost, bench-top, autosampler, and long-term stability tests. For all stability studies, fresh QC samples were evaluated by using a freshly prepared standard curve for the measurements. The analyzed conditions were 0, 8, and 24 h at room temperature, 8 h at 4 °C, and 30 days at −70 °C. The concentrations obtained from all of the stability studies were compared with the fresh QC samples, and the percentage of concentration deviation was calculated.

[2] = Stability of the active compounds in mouse plasma under handling and storage conditions; details: mice plasma
Experimental: as §1

[3] = Autosampler (4 °C, 8 h), nominal 2.5 μg/mL
[4] = Autosampler (4 °C, 8 h), nominal 5 μg/mL
[5] = Autosampler (4 °C, 8 h), nominal 10 μg/mL
[6] = Long-term (−70 °C, 1 month), nominal 2.5 μg/mL
[7] = Long-term (−70 °C, 1 month), nominal 5 μg/mL
[8] = Long-term (−70 °C, 1 month), nominal 10 μg/mL
[9] = room temperature, 0 h, nominal 2.5 μg/mL
[10] = room temperature, 0 h, nominal 5 μg/mL
[11] = room temperature, 0 h, nominal 10 μg/mL
[12] = room temperature, 8 h, nominal 2.5 μg/mL
[13] = room temperature, 8 h, nominal 5 μg/mL
[14] = room temperature, 8 h, nominal 10 μg/mL
[15] = room temperature, 24 h, nominal 2.5 μg/mL
[16] = room temperature, 24 h, nominal 5 μg/mL
[17] = room temperature, 24 h, nominal 10 μg/mL

Accuracy Bias ([1]; 0 h, 2.5 μg/mL): −0.48% | Observed Concentration ([1]; 0 h, 2.5 μg/mL): 2.49 ± 0.12 µg/mL | Accuracy Bias ([1]; 0 h, 5 μg/mL): 0.39% | Observed Concentration ([1]; 0 h, 5 μg/mL): 5.02 ± 0.08 µg/mL | Accuracy Bias ([1]; 0 h, 10 μg/mL): 0.04% | Observed Concentration ([1]; 0 h, 10 μg/mL): 10.00 ± 0.37 µg/mL | Accuracy Bias ([1]; 1 month, 2.5 μg/mL): −7.05% | Observed Concentration ([1]; 1 month, 2.5 μg/mL): 2.32 ± 0.08 µg/mL | Accuracy Bias ([1]; 1 month, 5 μg/mL): −2.27% | Observed Concentration ([1]; 1 month, 5 μg/mL): 4.89 ± 0.17 µg/mL | Accuracy Bias ([1]; 1 month, 10 μg/mL): −0.46% | Observed Concentration ([1]; 1 month, 10 μg/mL): 9.95 ± 0.38 µg/mL | Accuracy Bias ([1]; 24 h, 2.5 μg/mL): −4.63% | Observed Concentration ([1]; 24 h, 2.5 μg/mL): 2.38 ± 0.08 µg/mL | Accuracy Bias ([1]; 24 h, 5 μg/mL): 0.43% | Observed Concentration ([1]; 24 h, 5 μg/mL): 5.02 ± 0.10 µg/mL | Accuracy Bias ([1]; 24 h, 10 μg/mL): −6.61% | Observed Concentration ([1]; 24 h, 10 μg/mL): 9.34 ± 0.27 µg/mL
Structure (SMILES): COc1cc2ccc(=O)oc2cc1O [Scopoletin, scopoletin]

Accuracy Bias [2, 3]: −2.64% | Observed Concentration [2, 3]: 2.43 ± 0.11 µg/mL | Accuracy Bias [2, 4]: −1.65% | Observed Concentration [2, 4]: 4.92 ± 0.14 µg/mL | Accuracy Bias [2, 5]: −0.65% | Observed Concentration [2, 5]: 9.93 ± 0.62 µg/mL | Accuracy Bias [2, 6]: −7.61% | Observed Concentration [2, 6]: 2.31 ± 0.09 µg/mL | Accuracy Bias [2, 7]: −2.90% | Observed Concentration [2, 7]: 4.85 ± 0.18 µg/mL | Accuracy Bias [2, 8]: −3.74% | Observed Concentration [2, 8]: 9.63 ± 0.65 µg/mL | Accuracy Bias [2, 9]: −4.59% | Observed Concentration [2, 9]: 2.39 ± 0.09 µg/mL | Accuracy Bias [2, 10]: −1.48% | Observed Concentration [2, 10]: 4.93 ± 0.11 µg/mL | Accuracy Bias [2, 11]: −0.41% | Observed Concentration [2, 11]: 9.96 ± 0.30 µg/mL | Accuracy Bias [2, 12]: −7.60% | Observed Concentration [2, 12]: 2.31 ± 0.08 µg/mL | Accuracy Bias [2, 13]: −0.86% | Observed Concentration [2, 13]: 4.96 ± 0.14 µg/mL | Accuracy Bias [2, 14]: −1.64% | Observed Concentration [2, 14]: 9.84 ± 0.40 µg/mL | Accuracy Bias [2, 15]: −5.93% | Observed Concentration [2, 15]: 2.35 ± 0.09 µg/mL | Accuracy Bias [2, 16]: −1.73% | Observed Concentration [2, 16]: 4.91 ± 0.17 µg/mL | Accuracy Bias [2, 17]: −4.52% | Observed Concentration [2, 17]: 9.55 ± 0.19 µg/mL
Structure (SMILES): COc1cc2oc(=O)ccc2c(O)c1OC [Tomentin, tomentin]
